What follows are compounds tested on HIV (assay: HOS HIV anti-infectivity assay (strain not stated)). Conditions: HOS HIV anti-infectivity assay; read-out: Activity Level.
Format: cell-based
Method: Compounds were profiled against two HIV-1 viruses, the M-tropic (CCR5 utilizing) Ba-L strain and the T-tropic (CXCR4 utilizing) IIIB strain. Both viruses were propagated in human peripheral blood lymphocytes. Compounds were tested for there ability to block infection of the HOS cell line (expressing hCXCR4/hCCR5/hCD4/pHIV-LTR-luciferase) by either HIV-1 Ba-L or HIV-1 IIIB. Compound cytotoxicity was also examined in the absence of virus addition.
HOS cells (expressing hCXCR4/hCCR5/hCD4/pHIV-LTR-luciferase) were harvested and diluted in Dulbeccos modified Eagles media supplemented with 2% FCS and non-essential amino acid to a concentration of 60,000 cells/ml. The cells were plated into 96-well plates (100 ul per well) and the plates were placed in a tissue culture incubator (37° C.; 5% CO2/95% air) for a period of 24 h.
Subsequently, 50 ul of the desired drug solution (4 times the final concentration) was added to each well and the plates were returned to the tissue culture incubator (37° C.; 5% CO2/95% air) for 1 h. Following this incubation 50 ul of diluted virus was added to each well (approximately 2 million RLU per well of virus). The plates were returned to the tissue culture incubator (37° C.; 5% CO2/95% air) and were incubated for a further 96 h.
Following this incubation the endpoint for the virally infected cultures was quantified following addition of Steady-Glo Luciferase assay system reagent (Promega, Madison, Wis.). Cell viability or non-infected cultures was measured using a CellTiter-Glo luminescent cell viability assay system (Promega, Madison, Wis.). All luminescent readouts are performed on a Topcount luminescence detector (Packard, Meridien, Conn.).
Compound `CN1CCN(c2cccc3nc(CN(C)C4CCCc5cccnc54)c(C(O)C(F)(F)F)n23)CC1` (stereo not drawn) [Example 89B, 2,2,2-Trifluoro-1-(5-(4-methyl-1-piperazinyl)-2-{[methyl(5,6,7,8-tetrahydro-8-quinolinyl)amino]methyl}imidazo[1,2-a]pyridin-3-yl)ethanol] has an IC50 of 100 to 500 nM.

Same assay, conditions: Human immunodeficiency virus 1, HOS HIV anti-infectivity assay; read-out: Activity Level
Compound `CCN1CCN(c2cccc3nc(CN(C)[C@H]4CCCc5cccnc54)c(CO)n23)CC1` [Example 54, [5-(4-Ethyl-1-piperazinyl)-2-({methyl[(8S)-5,6,7,8-tetrahydro-8-quinolinyl]amino}methyl)imidazo[1,2-a]pyridin-3-yl]methanol] has an IC50 of less than 100 nM.
Work on `CCCN(Cc1nc2cccc(N3CCN(C)CC3)n2c1CO)[C@H]1CCCc2cccnc21` [Example 36, [5-(4-Methyl-1-piperazinyl)-2-({propyl[(8S)-5,6,7,8-tetrahydro-8-quinolinyl]amino}methyl)imidazo[1,2-a]pyridin-3-yl]methanol] yielded an IC50 of less than 100 nM.
`CC(C)N(Cc1nc2cccc(N3CCN(C)CC3)n2c1CO)[C@H]1CCCc2cccnc21` [Example 34, [2-({(1-Methylethyl)[(8S)-5,6,7,8-tetrahydro-8-quinolinyl]amino}methyl)-5-(4-methyl-1-piperazinyl)imidazo[1,2-a]pyridin-3-yl]methanol] was tested, and the IC50 was less than 100 nM.
`CN(Cc1nc2cccc(N3CC[C@@H](N)C3)n2c1CO)[C@H]1CCCc2cccnc21` [Example 60, [5-[(3R)-3-Amino-1-pyrrolidinyl]-2-({methyl[(8S)-5,6,7,8-tetrahydro-8-quinolinyl]amino}methyl)imidazo[1,2-a]pyridin-3-yl]methanol] was tested, and the IC50 was less than 100 nM.
In the case of `CN(C)[C@H]1CCN(c2cccc3nc(CN(C)[C@H]4CCCc5cccnc54)c(CO)n23)C1` [Example 58, [5-[(3S)-3-(Dimethylamino)-1-pyrrolidinyl]-2-({methyl[(8S)-5,6,7,8-tetrahydro-8-quinolinyl]amino}methyl)imidazo[1,2-a]pyridin-3-yl]methanol], the IC50 is reported as less than 100 nM.
In the case of `CCN(Cc1nc2cccc(N3CC[C@@H](N(C)C)C3)n2c1CO)[C@H]1CCCc2cccnc21` [Example 66, [5-[(3R)-3-(Dimethylamino)-1-pyrrolidinyl]-2-({ethyl[(8S)-5,6,7,8-tetrahydro-8-quinolinyl]amino}methyl)imidazo[1,2-a]pyridin-3-yl]methanol], the IC50 is reported as less than 100 nM.
Compound `CC(C)N1CCN(c2cccc3nc(CN(C)[C@H]4CCCc5cccnc54)c(CO)n23)CC1` [Example 56, [5-[4-(1-Methylethyl)-1-piperazinyl]-2-({methyl[(8S)-5,6,7,8-tetrahydro-8-quinolinyl]amino}methyl)imidazo[1,2-a]pyridin-3-yl]methanol] has an IC50 of less than 100 nM.
In the case of `CC(c1nc2cccc(N3CCN(C)CC3)n2c1CO)N(C)[C@H]1CCCc2cccnc21` (stereo partly drawn) [Example 88, [5-(4-Methyl-1-piperazinyl)-2-(1-{methyl[(8S)-5,6,7,8-tetrahydro-8-quinolinyl]amino}ethyl)imidazo[1,2-a]pyridin-3-yl]methanol], the IC50 is reported as less than 100 nM.
`CN(Cc1nc2cccc(OCCN3CCCC3)n2c1CO)[C@H]1CCCc2cccnc21` [Example 80, (2-({Methyl[(8S)-5,6,7,8-tetrahydro-8-quinolinyl]amino}methyl)-5-{[2-(1-pyrrolidinyl)ethyl]oxy}imidazo[1,2-a]pyridin-3-yl)methanol] showed an IC50 of less than 100 nM.
`CCCN(Cc1nc2cccc(N3CC[C@@H](N(C)C)C3)n2c1CO)[C@H]1CCCc2cccnc21` [Example 68, [5-[(3R)-3-(Dimethylamino)-1-pyrrolidinyl]-2-({propyl[(8S)-5,6,7,8-tetrahydro-8-quinolinyl]amino}methyl)imidazo[1,2-a]pyridin-3-yl]methanol] was tested, and the IC50 was less than 100 nM.
Work on `CN(Cc1nc2cccc(N3CCCNCC3)n2c1CO)[C@H]1CCCc2cccnc21` [Example 48, [5-(Hexahydro-1H-1,4-diazepin-1-yl)-2-({methyl[(8S)-5,6,7,8-tetrahydro-8-quinolinyl]amino}methyl)imidazo[1,2-a]pyridin-3-yl]methanol] yielded an IC50 of less than 100 nM.
`CN1CCN(c2cccc3nc(CN(C)[C@H]4CCCc5cccnc54)c(CO)n23)CC1` [Example 25, [5-(4-Methyl-1-piperazinyl)-2-({methyl[(8S)-5,6,7,8-tetrahydro-8-quinolinyl]amino}methyl)imidazo[1,2-a]pyridin-3-yl]methanol] was tested, and the IC50 was less than 100 nM.
In the case of `CN1CCN(c2cccc3nc(CN(CC4CC4)[C@H]4CCCc5cccnc54)c(CO)n23)CC1` [Example 38, [2-({(Cyclopropylmethyl)[(8S)-5,6,7,8-tetrahydro-8-quinolinyl]amino}methyl)-5-(4-methyl-1-piperazinyl)imidazo[1,2-a]pyridin-3-yl]methanol], the IC50 is reported as less than 100 nM.
`CN(C)[C@@H]1CCN(c2cccc3nc(CN(CC4CC4)[C@H]4CCCc5cccnc54)c(CO)n23)C1` [Example 72, {2-({(Cyclopropylmethyl)[(8S)-5,6,7,8-tetrahydro-8-quinolinyl]amino}methyl)-5-[(3R)-3-(dimethylamino)-1-pyrrolidinyl]imidazo[1,2-a]pyridin-3-yl}methanol] showed an IC50 of less than 100 nM.
`CN1CCN(c2cccc3nc(CN(C)C4CCCCc5cccnc54)c(CO)n23)CC1` (stereo not drawn) [Example 30, (5-(4-Methyl-1-piperazinyl)-2-{[methyl(6,7,8,9-tetrahydro-5H-cyclohepta[b]pyridin-9-yl)amino]methyl}imidazo[1,2-a]pyridin-3-yl)methanol] gave an IC50 of less than 100 nM.
`CC(C)N(Cc1nc2cccc(N3CC[C@@H](N(C)C)C3)n2c1CO)[C@H]1CCCc2cccnc21` [Example 70, [5-[(3R)-3-(Dimethylamino)-1-pyrrolidinyl]-2-({(1-methylethyl)[(8S)-5,6,7,8-tetrahydro-8-quinolinyl]amino}methyl)imidazo[1,2-a]pyridin-3-yl]methanol] gave an IC50 of less than 100 nM.
`COc1ccc([C@H](C)N(Cc2nc3cccc(N4CCN(C)CC4)n3c2CO)[C@H]2CCCc3cccnc32)cc1` [Example 22, [2-({{(1S)-1-[4-(Methyloxy)phenyl]ethyl}[(8S)-5,6,7,8-tetrahydro-8-quinolinyl]amino}methyl)-5-(4-methyl-1-piperazinyl)imidazo[1,2-a]pyridin-3-yl]methanol] was tested, and the IC50 was less than 100 nM.
Compound `CN1CCCN(c2cccc3nc(CN(C)[C@H]4CCCc5cccnc54)c(CO)n23)CC1` [Example 50, [5-(4-Methylhexahydro-1H-1,4-diazepin-1-yl)-2-({methyl[(8S)-5,6,7,8-tetrahydro-8-quinolinyl]amino}methyl)imidazo[1,2-a]pyridin-3-yl]methanol] has an IC50 of less than 100 nM.
In the case of `CCN(Cc1nc2cccc(N3CCN(C)CC3)n2c1CO)[C@H]1CCCc2cccnc21` [Example 32, [2-({Ethyl[(8S)-5,6,7,8-tetrahydro-8-quinolinyl]amino}methyl)-5-(4-methyl-1-piperazinyl)imidazo[1,2-a]pyridin-3-yl]methanol], the IC50 is reported as less than 100 nM.
Work on `CC(O)c1c(CN(C)[C@H]2CCCc3cccnc32)nc2cccc(N3CCN(C)CC3)n12` (stereo partly drawn) [Example 84, 1-[5-(4-Methyl-1-piperazinyl)-2-({methyl[(8S)-5,6,7,8-tetrahydro-8-quinolinyl]amino}methyl)imidazo[1,2-a]pyridin-3-yl]ethanol] yielded an IC50 of less than 100 nM.
With `CN1CCN(c2cccc3nc(CN(C)C4CCCc5cccnc54)c(CO)n23)CC1` (stereo not drawn) [Example 20, (5-(4-Methyl-1-piperazinyl)-2-{[methyl(5,6,7,8-tetrahydro-8-quinolinyl)amino]methyl}imidazo[1,2-a]pyridin-3-yl)methanol] the IC50 was less than 100 nM.
In the case of `CN(Cc1nc2cccc(OCCN3CCCCC3)n2c1CO)[C@H]1CCCc2cccnc21` [Example 82, (2-({Methyl[(8S)-5,6,7,8-tetrahydro-8-quinolinyl]amino}methyl)-5-{[2-(1-piperidinyl)ethyl]oxy}imidazo[1,2-a]pyridin-3-yl)methanol], the IC50 is reported as less than 100 nM.
Work on `CN(Cc1nc2cccc(N3CCC(N)CC3)n2c1CO)[C@H]1CCCc2cccnc21` [Example 76, [5-(4-Amino-1-piperidinyl)-2-({methyl[(8S)-5,6,7,8-tetrahydro-8-quinolinyl]amino}methyl)imidazo[1,2-a]pyridin-3-yl]methanol] yielded an IC50 of less than 100 nM.
`CN(C)CCOc1cccc2nc(CN(C)[C@H]3CCCc4cccnc43)c(CO)n12` [Example 78, [5-{[2-(Dimethylamino)ethyl]oxy}-2-({methyl[(8S)-5,6,7,8-tetrahydro-8-quinolinyl]amino}methyl)imidazo[1,2-a]pyridin-3-yl]methanol] showed an IC50 of less than 100 nM.
Compound `CN(C)CCN(C)c1cccc2nc(CN(C)[C@H]3CCCc4cccnc43)c(CO)n12` [Example 28, [5-[[2-(Dimethylamino)ethyl](methyl)amino]-2-({methyl[(8S)-5,6,7,8-tetrahydro-8-quinolinyl]amino}methyl)imidazo[1,2-a]pyridin-3-yl]methanol] has an IC50 of less than 100 nM.
With `CN(Cc1nc2cccc(N3CCN4CCCC4C3)n2c1CO)[C@H]1CCCc2cccnc21` (stereo partly drawn) [Example 44, [5-(Hexahydropyrrolo[1,2-a]pyrazin-2(1H)-yl)-2-({methyl[(8S)-5,6,7,8-tetrahydro-8-quinolinyl]amino}methyl)imidazo[1,2-a]pyridin-3-yl]methanol] the IC50 was less than 100 nM.
